Patent publication US3957987A, “Compositions containing a carbonamidoquinoxaline-di-N-oxide and method of using same” (Bayer Aktiengesellschaft, priority 1971, dated 1976)
Converted amounts (≈) assume the structure as drawn.

Test system: Bordetella bronchiseptica
Test: Minimum inhibitory concentration, Bordetella bronchiseptica
Assay type: cell-based
Settings: not given

SMILES	MIC
CNC(=O)c1c(C=NNC(=O)OCCO)[n+]([O-])c2ccccc2[n+]1[O-] [Example 25]	100 µg/mL (≈ 286 µM)
CCOC(=O)NN=Cc1c(C(=O)NC)[n+]([O-])c2ccccc2[n+]1[O-] [Example 26]	100 µg/mL (≈ 300 µM)
CCOC(=O)NN=Cc1c(C(=O)NCCO)[n+]([O-])c2ccccc2[n+]1[O-] [Example 27]	100 µg/mL (≈ 275 µM)
O=C(NN=Cc1c(C(=O)NCCO)[n+]([O-])c2ccccc2[n+]1[O-])OCCO [Example 28]	100 µg/mL (≈ 264 µM)
O=C(NCCO)c1c(C=NNC(=O)N2CCOCC2)[n+]([O-])c2ccccc2[n+]1[O-] [Example 29]	100 µg/mL (≈ 247 µM)

Test system: Escherichia coli C 165
Test: Minimum inhibitory concentration in vitro, Escherichia coli C 165
Assay type: cell-based
Settings: C165
Text: (§1) As representative of the spectrum of antimicrobial activity for these compounds, the following representative minimum inhibitory concentrations shown on Tables A, B and C can be noted:
(§2) Minimum Inhibitory Concentrations In Vitro, in μg/ml of Medium

SMILES	MIC
CCOC(=O)NN=Cc1c(C(=O)NC)[n+]([O-])c2ccccc2[n+]1[O-] [Example 26]	100 µg/mL (≈ 300 µM)

Test system: Mycobacterium species
Test: Minimum inhibitory concentration, Mycobacterium species
Assay type: cell-based
Settings: not given
Text: (§3) As representative of the spectrum of antimicrobial activity for these compounds, the following representative minimum inhibitory concentrations shown on Tables A, B and C can be noted: […]

SMILES	MIC
O=C(NCCO)c1c(C=NNC(=O)N2CCOCC2)[n+]([O-])c2ccccc2[n+]1[O-] [Example 29]	40 µg/mL (≈ 98.9 µM)

Test system: Staphylococcus aureus 133
Test: Minimum inhibitory concentration in vitro, Staphylococcus aureus 133
Assay type: cell-based
Settings: not given
Text: as §1, §2

SMILES	MIC
CCOC(=O)NN=Cc1c(C(=O)NC)[n+]([O-])c2ccccc2[n+]1[O-] [Example 26]	100 µg/mL (≈ 300 µM)

Test system: Streptococcus pyogenes
Test: Minimum inhibitory concentration in vitro, Streptococcus pyogenes
Assay type: cell-based
Settings: not given
Text: as §1, §2

SMILES	MIC
CCOC(=O)NN=Cc1c(C(=O)NC)[n+]([O-])c2ccccc2[n+]1[O-] [Example 26]	100 µg/mL (≈ 300 µM)
CCOC(=O)NN=Cc1c(C(=O)NCCO)[n+]([O-])c2ccccc2[n+]1[O-] [Example 27]	100 µg/mL (≈ 275 µM)

Test system: Mycoplasma S6
Test: Minimum inhibitory concentration, Mycoplasma S6
Assay type: cell-based
Settings: not given

SMILES	MIC
CNC(=O)c1c(C=NNC(=O)OCCO)[n+]([O-])c2ccccc2[n+]1[O-] [Example 25]	100 µg/mL (≈ 286 µM)
CCOC(=O)NN=Cc1c(C(=O)NC)[n+]([O-])c2ccccc2[n+]1[O-] [Example 26]	100 µg/mL (≈ 300 µM)
CCOC(=O)NN=Cc1c(C(=O)NCCO)[n+]([O-])c2ccccc2[n+]1[O-] [Example 27]	100 µg/mL (≈ 275 µM)
O=C(NN=Cc1c(C(=O)NCCO)[n+]([O-])c2ccccc2[n+]1[O-])OCCO [Example 28]	100 µg/mL (≈ 264 µM)
O=C(NCCO)c1c(C=NNC(=O)N2CCOCC2)[n+]([O-])c2ccccc2[n+]1[O-] [Example 29]	100 µg/mL (≈ 247 µM)

Test system: Alcaligenes faecalis ATCC
Test: Minimum inhibitory concentration, Alcaligenes faecalis ATCC
Assay type: cell-based
Settings: not given

SMILES	MIC
CNC(=O)c1c(C=NNC(=O)OCCO)[n+]([O-])c2ccccc2[n+]1[O-] [Example 25]	100 µg/mL (≈ 286 µM)
CCOC(=O)NN=Cc1c(C(=O)NC)[n+]([O-])c2ccccc2[n+]1[O-] [Example 26]	100 µg/mL (≈ 300 µM)
CCOC(=O)NN=Cc1c(C(=O)NCCO)[n+]([O-])c2ccccc2[n+]1[O-] [Example 27]	100 µg/mL (≈ 275 µM)
O=C(NN=Cc1c(C(=O)NCCO)[n+]([O-])c2ccccc2[n+]1[O-])OCCO [Example 28]	100 µg/mL (≈ 264 µM)
O=C(NCCO)c1c(C=NNC(=O)N2CCOCC2)[n+]([O-])c2ccccc2[n+]1[O-] [Example 29]	100 µg/mL (≈ 247 µM)

Test system: Aeromonas liquefaciens
Test: Minimum inhibitory concentration, Aeromonas liquefaciens
Assay type: cell-based
Settings: Aeromonas hydrophila

SMILES	MIC
CNC(=O)c1c(C=NNC(=O)OCCO)[n+]([O-])c2ccccc2[n+]1[O-] [Example 25]	100 µg/mL (≈ 286 µM)
CCOC(=O)NN=Cc1c(C(=O)NC)[n+]([O-])c2ccccc2[n+]1[O-] [Example 26]	100 µg/mL (≈ 300 µM)
CCOC(=O)NN=Cc1c(C(=O)NCCO)[n+]([O-])c2ccccc2[n+]1[O-] [Example 27]	100 µg/mL (≈ 275 µM)
O=C(NN=Cc1c(C(=O)NCCO)[n+]([O-])c2ccccc2[n+]1[O-])OCCO [Example 28]	100 µg/mL (≈ 264 µM)
O=C(NCCO)c1c(C=NNC(=O)N2CCOCC2)[n+]([O-])c2ccccc2[n+]1[O-] [Example 29]	100 µg/mL (≈ 247 µM)

Test system: Clostridium tetani
Test: microbe, parasite or virus in culture
Assay type: cell-based
Settings: read-out: minimum inhibitory concentration

SMILES	MIC
CNC(=O)c1c(C=NNC(=O)OCCO)[n+]([O-])c2ccccc2[n+]1[O-] [Example 25]	100 µg/mL (≈ 286 µM)
CCOC(=O)NN=Cc1c(C(=O)NC)[n+]([O-])c2ccccc2[n+]1[O-] [Example 26]	100 µg/mL (≈ 300 µM)
CCOC(=O)NN=Cc1c(C(=O)NCCO)[n+]([O-])c2ccccc2[n+]1[O-] [Example 27]	100 µg/mL (≈ 275 µM)
O=C(NN=Cc1c(C(=O)NCCO)[n+]([O-])c2ccccc2[n+]1[O-])OCCO [Example 28]	100 µg/mL (≈ 264 µM)
O=C(NCCO)c1c(C=NNC(=O)N2CCOCC2)[n+]([O-])c2ccccc2[n+]1[O-] [Example 29]	100 µg/mL (≈ 247 µM)

Test system: Mycoplasma gran
Test: Minimum inhibitory concentration, Mycoplasma gran
Assay type: cell-based
Settings: not given

SMILES	MIC
CNC(=O)c1c(C=NNC(=O)OCCO)[n+]([O-])c2ccccc2[n+]1[O-] [Example 25]	1 µg/mL (≈ 2.86 µM)
CCOC(=O)NN=Cc1c(C(=O)NC)[n+]([O-])c2ccccc2[n+]1[O-] [Example 26]	0.1 µg/mL (≈ 0.3 µM)
CCOC(=O)NN=Cc1c(C(=O)NCCO)[n+]([O-])c2ccccc2[n+]1[O-] [Example 27]	100 µg/mL (≈ 275 µM)
O=C(NN=Cc1c(C(=O)NCCO)[n+]([O-])c2ccccc2[n+]1[O-])OCCO [Example 28]	100 µg/mL (≈ 264 µM)
O=C(NCCO)c1c(C=NNC(=O)N2CCOCC2)[n+]([O-])c2ccccc2[n+]1[O-] [Example 29]	100 µg/mL (≈ 247 µM)

Test system: Mycoplasma MS
Test: Minimum inhibitory concentration, Mycoplasma MS
Assay type: cell-based
Settings: not given
Text: as §3

SMILES	MIC
CNC(=O)c1c(C=NNC(=O)OCCO)[n+]([O-])c2ccccc2[n+]1[O-] [Example 25]	100 µg/mL (≈ 286 µM)
CCOC(=O)NN=Cc1c(C(=O)NC)[n+]([O-])c2ccccc2[n+]1[O-] [Example 26]	100 µg/mL (≈ 300 µM)

Test system: Klebsiella 63
Test: Minimum inhibitory concentration in vitro, Klebsiella 63
Assay type: cell-based
Settings: not given
Text: as §1, §2

SMILES	MIC
CCOC(=O)NN=Cc1c(C(=O)NC)[n+]([O-])c2ccccc2[n+]1[O-] [Example 26]	100 µg/mL (≈ 300 µM)

Test system: Pasteurella multocida ATCC
Test: Minimum inhibitory concentration, Pasteurella multocida ATCC
Assay type: cell-based
Settings: not given

SMILES	MIC
CNC(=O)c1c(C=NNC(=O)OCCO)[n+]([O-])c2ccccc2[n+]1[O-] [Example 25]	100 µg/mL (≈ 286 µM)
CCOC(=O)NN=Cc1c(C(=O)NC)[n+]([O-])c2ccccc2[n+]1[O-] [Example 26]	100 µg/mL (≈ 300 µM)
CCOC(=O)NN=Cc1c(C(=O)NCCO)[n+]([O-])c2ccccc2[n+]1[O-] [Example 27]	100 µg/mL (≈ 275 µM)
O=C(NN=Cc1c(C(=O)NCCO)[n+]([O-])c2ccccc2[n+]1[O-])OCCO [Example 28]	100 µg/mL (≈ 264 µM)
O=C(NCCO)c1c(C=NNC(=O)N2CCOCC2)[n+]([O-])c2ccccc2[n+]1[O-] [Example 29]	100 µg/mL (≈ 247 µM)

Test system: Clostridium botulinum
Test: microbe, parasite or virus in culture
Assay type: cell-based
Settings: read-out: minimum inhibitory concentration

SMILES	MIC
CNC(=O)c1c(C=NNC(=O)OCCO)[n+]([O-])c2ccccc2[n+]1[O-] [Example 25]	1 µg/mL (≈ 2.86 µM)
CCOC(=O)NN=Cc1c(C(=O)NC)[n+]([O-])c2ccccc2[n+]1[O-] [Example 26]	1 µg/mL (≈ 3 µM)
CCOC(=O)NN=Cc1c(C(=O)NCCO)[n+]([O-])c2ccccc2[n+]1[O-] [Example 27]	100 µg/mL (≈ 275 µM)
O=C(NN=Cc1c(C(=O)NCCO)[n+]([O-])c2ccccc2[n+]1[O-])OCCO [Example 28]	100 µg/mL (≈ 264 µM)
O=C(NCCO)c1c(C=NNC(=O)N2CCOCC2)[n+]([O-])c2ccccc2[n+]1[O-] [Example 29]	100 µg/mL (≈ 247 µM)

Test system: Klebsiella 8085
Test: Minimum inhibitory concentration in vitro, Klebsiella 8085
Assay type: cell-based
Settings: not given
Text: as §1, §2

SMILES	MIC
CCOC(=O)NN=Cc1c(C(=O)NC)[n+]([O-])c2ccccc2[n+]1[O-] [Example 26]	10 µg/mL (≈ 30 µM)
CCOC(=O)NN=Cc1c(C(=O)NCCO)[n+]([O-])c2ccccc2[n+]1[O-] [Example 27]	100 µg/mL (≈ 275 µM)
